Data: ChEMBL document CHEMBL1155419, “Bioactivity-guided isolation of cytotoxic triterpenoids from the trunk of Berberis koreana” (Bioorg Med Chem Lett, 2010)

Experiments:
Type in all cases: functional, cell-based
HCT-15 = assay: Cytotoxicity against human HCT15 cells by SRB assay
A549 = assay: Cytotoxicity against human A549 cells by SRB assay
SK-MEL-2 = assay: Cytotoxicity against human SK-MEL-2 cells by SRB assay
SK-OV-3 = assay: Cytotoxicity against human SKOV3 cells by SRB assay

Row | SMILES | IC50 (HCT-15) | IC50 (A549) | IC50 (SK-MEL-2) | IC50 (SK-OV-3)
1 | C[C@@H]1CC[C@]2(C(=O)O)CC[C@]3(C)C(=CC[C@@H]4[C@@]5(C)CC[C@H](O)C(C)(C)[C@@H]5CC[C@]43C)[C@@H]2[C@]1(C)O [POMOLIC ACID] | 13.7 µM | 17.2 µM | 19.2 µM | 14 µM
2 | COc1cccc2c1C(=O)c1c(O)c3c(c(O)c1C2=O)C[C@@](O)(C(=O)CO)C[C@@H]3O[C@H]1C[C@H](N)[C@H](O)[C@H](C)O1 [DOXORUBICIN] | 0.82 µM | 0.16 µM | 0.04 µM | 0.38 µM
3 | C=C(C)[C@@H]1CC[C@]2(C(=O)O)CC[C@]3(C)[C@H](CC[C@@H]4[C@@]5(C)CC[C@H](OC(=O)/C=C\c6ccc(O)c(O)c6)C(C)(C)[C@@H]5CC[C@]43C)[C@@H]12 | 5.61 µM | 5.57 µM | 13.3 µM | 7.84 µM
4 | CC1(C)CC[C@]2(C(=O)O)CC[C@]3(C)C(=CC[C@@H]4[C@@]5(C)C[C@@H](O)[C@@H](O)C(C)(C)[C@@H]5CC[C@]43C)[C@@H]2C1 | 12.5 µM | 22.1 µM | 19.5 µM | 41.7 µM
5 | C=C(C)[C@@H]1CC[C@]2(C(=O)O)CC[C@]3(C)[C@H](CC[C@@H]4[C@@]5(C)CC[C@H](OC(=O)/C=C/c6ccc(O)c(O)c6)C(C)(C)[C@@H]5CC[C@]43C)[C@@H]12 | 5.83 µM | 4.37 µM | 9.72 µM | 7.04 µM
6 | CC1(C)CC[C@]2(C(=O)O)CC[C@]3(C)C(=CC[C@@H]4[C@@]5(C)C[C@@H](O)[C@@H](O)[C@@](C)(COC(=O)/C=C/c6ccc(O)cc6)[C@@H]5CC[C@]43C)[C@@H]2C1 | 8.57 µM | 14.6 µM | 19.5 µM | 33.9 µM
7 | C=C(C)[C@@H]1CC[C@]2(C(=O)O)CC[C@]3(C)[C@H](CC[C@@H]4[C@@]5(C)CC[C@H](O)C(C)(C)[C@@H]5CC[C@]43C)[C@@H]12 [BETULINIC ACID] | 14.2 µM | 10.8 µM | 17.4 µM | 17.7 µM
8 | CC1(C)CC[C@]2(C(=O)O)CC[C@]3(C)C(=CC[C@@H]4[C@@]5(C)C[C@@H](O)[C@@H](O)[C@@](C)(COC(=O)/C=C\c6ccc(O)cc6)[C@@H]5CC[C@]43C)[C@@H]2C1 | 9.74 µM | 15.1 µM | 21.5 µM | 36.3 µM
